Results taken from ChEMBL document CHEMBL1201862, “PubChem BioAssay data set” (2004).
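Briefly, cells in 96-well plates were exposed to five compound concentrations for 48 h, and endpoints were estimated by linear interpolation. The concentration for 50% growth inhibition is given as GI50.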 Calls of active or inactive are those of the source. No stated cut-off is given here; in the data, active = GI50 up to about 1.1 µM and inactive = higher.

Legend:
Assay in all cases: NCI anticancer screen, dose series, 48 h
LXFL 529 = test system: LXFL 529
KM-20L2 = test system: KM-20L2
DMS-114 = test system: DMS-114
DLD-1 = test system: DLD-1
DMS-273 = test system: DMS-273
M19-MEL = test system: M19-MEL
XF498 = test system: XF498
RXF 631 = test system: RXF 631
HOP-18 = test system: HOP-18

Row | SMILES | GI50 (LXFL 529) | GI50 (KM-20L2) | GI50 (DMS-114) | GI50 (DLD-1) | GI50 (DMS-273) | GI50 (M19-MEL) | GI50 (XF498) | GI50 (RXF 631) | GI50 (HOP-18)
1 | Cc1cc(O)c2c(c1)OC1(C)CCC3C(C)(C)CCCC34COC2C14 (stereo not drawn) | 15 µM (inactive) | 16.6 µM (inactive) | 13.9 µM (inactive) | 20.4 µM (inactive) | 14 µM (inactive) |  |  |  | 
2 | CS(=O)(=O)Nc1ccc(Nc2c3ccccc3nc3ccccc23)cc1 | 3.43 µM (inactive) | 3.06 µM (inactive) | 1.46 µM (inactive) | 4.15 µM (inactive) | 0.658 µM (active) | 2.32 µM (inactive) | 2.6 µM (inactive) | 1.77 µM (inactive) | 2.82 µM (inactive)
3 | C=C1CC2(OC1=O)c1ccccc1CCc1ccccc12 | 1.7 µM (inactive) | 4.06 µM (inactive) | 1.85 µM (inactive) | 1.83 µM (inactive) | 3.49 µM (inactive) | 1.83 µM (inactive) | 2.41 µM (inactive) |  | 1.97 µM (inactive)
4 | CCC(C)C(N)C(=O)NC(CC(N)=O)C(=O)NC(CC(C)C)C(=O)NC(CCCCN)C(=O)NC(C)C(=O)NC(CC(C)C)C(=O)NC(C)C(=O)NC(C)C(=O)NC(CC(C)C)C(=O)NC(C)C(=O)NC(CCCCN)C(=O)NC(CCCCN)C(=O)NC(C(=O)NC(CC(C)C)C(N)=O)C(C)CC (stereo not drawn) | 14.9 µM (inactive) | 22.5 µM (inactive) | 14.1 µM (inactive) | 10.4 µM (inactive) | 7.43 µM (inactive) | 10.1 µM (inactive) |  | 7.82 µM (inactive) | 7.01 µM (inactive)
5 | COc1ccc(-c2cc(-c3cc(C)ccc3O)nc(O)n2)cc1 | 64 µM (inactive) | > 100 µM (inactive) | 81.8 µM (inactive) | > 100 µM (inactive) | 50.8 µM (inactive) | > 100 µM (inactive) |  | > 100 µM (inactive) | > 100 µM (inactive)
6 | C[C@]12CCCC(=O)C1C[C@H](C(=O)O)CC2 (stereo partly drawn) | > 100 µM (inactive) | > 100 µM (inactive) | > 100 µM (inactive) | > 100 µM (inactive) | > 100 µM (inactive) | > 100 µM (inactive) | > 100 µM (inactive) | > 100 µM (inactive) | > 100 µM (inactive)
7 | Cn1cnc([N+](=O)[O-])c1Sc1nccn1-c1ccccc1 |  | > 100 µM (inactive) | 29.4 µM (inactive) | 33.3 µM (inactive) | 63.5 µM (inactive) | 51.8 µM (inactive) | 31.1 µM (inactive) |  | 8.85 µM (inactive)
8 | CC1=C(C)C(=O)C2=C(OCCCO2)C1=O | 18 µM (inactive) | 34.2 µM (inactive) | 18.4 µM (inactive) | > 10 µM (inactive) |  | 17.9 µM (inactive) |  | 17.7 µM (inactive) | 
9 | Cc1cc2nc3c(C(OC4OC(CO)C(O)C(O)C4O)C(O)CO)nn(-c4ccccc4)c3nc2cc1C (stereo not drawn) |  | > 100 µM (inactive) | > 100 µM (inactive) | > 100 µM (inactive) |  |  | > 100 µM (inactive) |  | 
10 | COC(=O)C(CC(=O)Nc1ccc(C)cc1)C(=O)C(=O)Nc1ccccc1C(C)C (stereo not drawn) | > 100 µM (inactive) | > 100 µM (inactive) | > 100 µM (inactive) | > 100 µM (inactive) | > 100 µM (inactive) | > 100 µM (inactive) | > 100 µM (inactive) |  | > 100 µM (inactive)
11 | CCOc1ccc(/C=C(\Cl)c2ccc(OC)cc2)cc1 | > 100 µM (inactive) | > 100 µM (inactive) | 78.7 µM (inactive) | > 100 µM (inactive) | > 100 µM (inactive) | > 100 µM (inactive) | > 100 µM (inactive) |  | > 100 µM (inactive)
12 | CCC(C)(C)NS(=O)(=O)c1ccccc1 | > 100 µM (inactive) | > 100 µM (inactive) | > 100 µM (inactive) | > 100 µM (inactive) | > 100 µM (inactive) | > 100 µM (inactive) | > 100 µM (inactive) |  | 
13 | COc1ccc(NC(=O)C(=O)C2NC(=S)NC2=O)c(OC)c1 (stereo not drawn) | > 100 µM (inactive) | > 100 µM (inactive) | > 100 µM (inactive) | > 100 µM (inactive) | > 100 µM (inactive) | > 100 µM (inactive) |  | > 100 µM (inactive) | 
14 | N#C/C(c1nc2ccccc2[nH]1)=c1\s/c(=C/c2ccccc2)c(=O)n1-c1ccccc1 | 96.2 µM (inactive) | > 100 µM (inactive) | > 100 µM (inactive) | > 100 µM (inactive) | > 100 µM (inactive) | > 100 µM (inactive) | 60.8 µM (inactive) |  | 
15 | Clc1cc(Cc2cc(Cl)c(Cl)c3c2OCOC3)c2c(c1Cl)COCO2 | 37.7 µM (inactive) | > 100 µM (inactive) | 45.5 µM (inactive) | > 100 µM (inactive) | 38.7 µM (inactive) | 82.8 µM (inactive) |  |  | 23.8 µM (inactive)
